Literature values, collected in patent EP3957364A1, “A BINDING MOLECULE SPECIFICALLY BINDING TO HUMAN CD4 FOR USE IN THE TREATMENT OF PULMONARY DISEASES” (Fraunhofer-Gesellschaft zur Förderung der angewandten …, priority 2020, dated 2022).

Biological target: CD4 (Homo sapiens, UniProt P01730)
Details: reported, no source named

TbYICbEbVEDQKAcEE
inhibition of CD4 binding of gp120 and MAX.16H5 IgG1 (or 16H5.chimlgG4): inhibit CD4 binding of both gp120 and MAX.16H5 IgG1
